Source: patent US7687609B2, “Galectin-glycosaminoglycan complex and method for controlling galectin activity” (National Institute of Advanced Industrial Science and …, priority 2006, dated 2010)

Columns and labels:
Type in all cases: binding
Galectin-3 = biological target: T1, Galectin-3 (Homo sapiens, UniProt P17931); experiment: FAC affinity test on galectin-immobilized column; settings: for V − V0 Value: pyridyl-aminated carbohydrate, galectin-3 immobilized 0.5 mg/ml, less than 5 μl = below interaction detection limit; for binding to galectin-3 (in words): text statement on the FAC results
T1 construct: made in house
Procedure: (§1) Various galectin molecules-immobilized columns were prepared by the method described by Nakamura S, Yagi F, Totani K, Ito γ and Hirabayashi J in FEBS J., 272, 2784-2799 (2005), using NHS Sepharose (manufactured by Amersham Bioscience) as the carrier for immobilizing galectin molecules and in accordance with the instructions attached thereto (put in parentheses is immobilization concentration, mg galectin/ml carrier).
(§2) Each galectin molecule was immobilized onto the carrier at the following concentration; galectin-1 (0.8 mg/ml), galectin-3 (0.5 mg/ml), galectin-8N (3.6 mg/ml), galectin-8C (4.0 mg/ml), galectin-9N (3.6 mg/ml), galectin-9C (3.0 mg/ml). The carrier on which each galectin was immobilized was charged into a stainless steel miniature column (2 mm in inner diameter, 10 mm in length; manufactured by Shimadzu Corp.).
(§3) A high performance liquid chromatography (HPLC) system was equipped with a galectin molecule-immobilized column, and the test was carried out by the method described in Nakamura S, Yagi F, Totani K, Ito γ and Hirabayashi J in FEBS J., 272, 2784-2799 (2005).
(§4) As the negative control sample, pyridyl-aminated N-acetylglucosamine (PA-GlcNAc, manufactured by Takara Bio, pyridyl-aminated glycosaminoglycan-oligosaccharide sample control) or pyridyl-aminated pullulan (prepared by carrying out pyridylamination of standard pullulan manufactured by Shodex, pyridyl-aminated glycosaminoglycan polysaccharide sample control) was used, and a V−V0 value was calculated from their eluate volume (V0 value) measured by fluorescence detection and the eluate volume (V value) of the sample, namely pyridyl-aminated glycosaminoglycan carbohydrate, and this was used as the index of interaction strength (Protein, Nucleic Acid and Enzyme, 48(8), 1206-1212 (2003)).
(§5) V−V0 values of pyridyl-aminated glycosaminoglycans (HA, CH, DN, NAH, CSA, CSB, CSC, CSD, CSE, KS-I and KS-II) were calculated based on PA-GlcNAc, and V−V0 values of pyridyl-aminated glycosaminoglycan-oligosaccharides (G2K1, G1L1, G4L4, L2L2, L2L4, L4L4, SL2L4 and CH3 to CH12) based on pyridyl-aminated pullulan, respectively.
(§6) In this connection, when the calculated value of the V−V0 value was less than 5 μl, it was regarded as less than the interaction detection limit in this example.

Galectin-9N = biological target: T2, Galectin-9N (Homo sapiens, UniProt O00182); experiment: FAC affinity test on galectin-immobilized column; settings: for V − V0 Value: pyridyl-aminated carbohydrate, galectin-9N immobilized 3.6 mg/ml, less than 5 μl = below interaction detection limit; for binding to galectin-9N (in words): text statement on the FAC results
T2 construct: N and C respectively represent N-terminal side carbohydrate-recognition domain and C-terminal side carbohydrate-recognition domain; made in house
Procedure: as §1, §2, §3, §4, §5, §6

Galectin-8N = biological target: T3, Galectin-8N (Homo sapiens, UniProt O00214); experiment: FAC affinity test on galectin-immobilized column; settings: for V − V0 Value: pyridyl-aminated carbohydrate, galectin-8N immobilized 3.6 mg/ml, less than 5 μl = below interaction detection limit
T3 construct: N and C respectively represent N-terminal side carbohydrate-recognition domain and C-terminal side carbohydrate-recognition domain; made in house
T3 sequence (O00214 19-152 limits assumed): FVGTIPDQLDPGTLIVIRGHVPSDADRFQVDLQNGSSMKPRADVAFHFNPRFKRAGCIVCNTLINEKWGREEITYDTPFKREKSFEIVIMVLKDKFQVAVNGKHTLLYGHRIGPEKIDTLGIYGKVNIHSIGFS
Procedure: as §1, §2, §3, §4, §5, §6

Galectin-1 = biological target: T4, Galectin-1 (Homo sapiens, UniProt P09382); experiment: FAC affinity test on galectin-immobilized column; settings: for V − V0 Value: pyridyl-aminated carbohydrate, galectin-1 immobilized 0.8 mg/ml, less than 5 μl = below interaction detection limit; for binding to galectin-1 (in words): text statement on the FAC results
T4 construct: made in house
Procedure: as §1, §2, §3, §4, §5, §6

Galectin-9C = biological target: T5, Galectin-9C (Homo sapiens, UniProt O00182); experiment: FAC affinity test on galectin-immobilized column; settings: for V − V0 Value: pyridyl-aminated carbohydrate, galectin-9C immobilized 3.0 mg/ml, less than 5 μl = below interaction detection limit; for binding to galectin-9C (in words): text statement on the FAC results
T5 construct: N and C respectively represent N-terminal side carbohydrate-recognition domain and C-terminal side carbohydrate-recognition domain; made in house
Procedure: as §1, §2, §3, §4, §5, §6

Galectin-8C = biological target: T6, Galectin-8C (Homo sapiens, UniProt O00214); experiment: FAC affinity test on galectin-immobilized column; settings: pyridyl-aminated carbohydrate; galectin-8C immobilized 4.0 mg/ml; less than 5 μl = below interaction detection limit
T6 construct: N and C respectively represent N-terminal side carbohydrate-recognition domain and C-terminal side carbohydrate-recognition domain; made in house
T6 sequence (O00214 187-317 limits assumed): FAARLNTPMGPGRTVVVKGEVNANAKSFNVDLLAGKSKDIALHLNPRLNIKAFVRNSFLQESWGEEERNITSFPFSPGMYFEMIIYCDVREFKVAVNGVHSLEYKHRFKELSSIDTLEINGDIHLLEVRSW
Procedure: as §1, §2, §3, §4, §5, §6

[1] = test system: tested galectin molecules (galectin-1, 3, 8N, 8C, 9N and 9C); experiment: FAC affinity test, statements on the whole panel of tested galectins; settings: Table 3, whole galectin panel
Text: Using FAC, the present inventors have conducted a comprehensive analysis of the interactions between various galectin molecules (galectin-1, 3, 8N, 8C, 9N and 9C; N and C respectively represent N-terminal side carbohydrate-recognition domain and C-terminal side carbohydrate-recognition domain)-immobilized columns and various fluorescence-labeled glycosaminoglycan molecules. As a result, novel affinity was found by the combination of specific galectin molecules and glycosaminoglycan molecules to thereby accomplish the present invention.
as §3, §4, §6

T4 sequence (P09382 whole entry): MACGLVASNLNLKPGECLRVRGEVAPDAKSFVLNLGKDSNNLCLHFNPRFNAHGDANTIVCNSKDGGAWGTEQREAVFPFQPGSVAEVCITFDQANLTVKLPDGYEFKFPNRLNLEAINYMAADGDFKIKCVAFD
T2 sequence (O00182 17-148 limits assumed): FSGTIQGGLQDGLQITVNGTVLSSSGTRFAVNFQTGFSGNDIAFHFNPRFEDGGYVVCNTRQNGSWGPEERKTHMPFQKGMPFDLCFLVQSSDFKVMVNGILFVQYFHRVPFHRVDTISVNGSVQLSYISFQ
T1 sequence (P17931 whole entry): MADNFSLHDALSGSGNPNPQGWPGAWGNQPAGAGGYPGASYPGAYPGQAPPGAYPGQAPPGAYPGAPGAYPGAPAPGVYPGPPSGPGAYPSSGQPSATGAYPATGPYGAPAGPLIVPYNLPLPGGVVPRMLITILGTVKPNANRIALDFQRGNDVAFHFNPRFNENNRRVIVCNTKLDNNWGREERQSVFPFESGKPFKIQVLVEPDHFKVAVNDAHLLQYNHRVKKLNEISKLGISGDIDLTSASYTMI
T5 sequence (O00182 227-355 limits assumed): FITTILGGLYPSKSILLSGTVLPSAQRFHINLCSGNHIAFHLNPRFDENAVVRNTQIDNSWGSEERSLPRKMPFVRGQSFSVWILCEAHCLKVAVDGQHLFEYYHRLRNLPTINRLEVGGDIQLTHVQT

V − V0 Value (Galectin-3) [µL]	binding to galectin-3 (in words) (Galectin-3)	V − V0 Value (Galectin-9N) [µL]	binding to galectin-9N (in words) (Galectin-9N)	V − V0 Value (Galectin-8N) [µL]	V − V0 Value (Galectin-1) [µL]	binding to galectin-1 (in words) (Galectin-1)	V − V0 Value (Galectin-9C) [µL]	binding to galectin-9C (in words) (Galectin-9C)	V − V0 Value (Galectin-8C) [µL]	binding to the tested galectin molecules (in words) [1]	binding to galectin-8N (in words) (Galectin-8N; text statement on the FAC results)	Compound
22.6 ± 1.1	showed binding affinity	8.8 ± 0.3	showed binding affinity	<5.0	6.2 ± 1.7	showed binding affinity	7.7 ± 0.4	showed binding affinity	<5.0	bound to various galectin molecules	–	Gal β1-4 GlcNAc6S β1-3 Gal β1-4 GlcNAc6S [L2L2]
<5.0	–	<5.0	–	<5.0	<5.0	–	<5.0	–	<5.0	did not bind	–	chondroitin sulfate D [CSD, reference compound]
<5.0	–	<5.0	–	<5.0	<5.0	–	<5.0	–	<5.0	did not bind	–	Hyaluronan [HA, reference compound]
<5.0	–	<5.0	–	<5.0	<5.0	–	<5.0	–	<5.0	did not bind	–	CC(=O)N[C@H]1[C@H](O[C@H]2[C@@H](O)[C@@H](COS(=O)(=O)O)O[C@@H](O[C@H]3[C@H](O)[C@@H](NC(C)=O)C(O)O[C@@H]3COS(=O)(=O)O)[C@@H]2O)O[C@H](COS(=O)(=O)O)[C@@H](O)[C@@H]1O (stereo partly drawn) [G4L4, GlcNAc6S β1-3 Gal6S β1-4 GlcNAc6S]
14.2 ± 1.3	showed binding affinity	13.6 ± 0.5	showed binding affinity	<5.0	<5.0	–	<5.0	–	<5.0	bound to various galectin molecules	–	CC(=O)N[C@H]1[C@H](O[C@H]2[C@@H](O)[C@@H](CO)O[C@@H](O[C@H]3[C@H](O)[C@@H](NC(C)=O)C(O)O[C@@H]3CO)[C@@H]2O)O[C@H](CO)[C@@H](O)[C@@H]1O (stereo partly drawn) [G1L1, GlcNAc β1-3 Gal β1-4 GlcNAc]
8.2 ± 0.2	showed binding affinity	<5.0	–	26.5 ± 0.9	<5.0	–	<5.0	–	<5.0	bound to various galectin molecules	showed binding affinity	CC(=O)NC1C(O)OC(COS(=O)(=O)O)C(OC2OC(COS(=O)(=O)O)C(O)C(OC3OC(COS(=O)(=O)O)C(OC4OC(CO)C(O)C(OC5(C(=O)O)CC(O)C(NC(C)=O)C(C(O)C(O)CO)O5)C4O)C(O)C3NC(C)=O)C2O)C1O (stereo not drawn) [SL2L4, NeuAc α2-3 Gal β1-4 GlcNAc6S β1-3 Gal6S β1-4 GlcNAc6S]
<5.0	–	<5.0	–	<5.0	<5.0	–	<5.0	–	<5.0	did not bind	–	chondroitin sulfate C [CSC, reference compound]
<5.0	–	<5.0	–	<5.0	<5.0	–	<5.0	–	<5.0	did not bind	–	CC(=O)NC1C(O)OC(COS(=O)(=O)[O-])C(OC2OC(COS(=O)(=O)[O-])C(O)C(OC3OC(COS(=O)(=O)[O-])C(OC4OC(COS(=O)(=O)[O-])C(O)C(O)C4O)C(O)C3NC(C)=O)C2O)C1O.[Na+].[Na+].[Na+].[Na+] (stereo not drawn) [L4L4, Gal6S β1-4 GlcNAc6S β1-3 Gal6S β1-4 GlcNAc6S]
15.8 ± 1.8	showed binding affinity	6.6 ± 1.4	showed binding affinity	<5.0	5.8 ± 0.2	showed binding affinity	5.3 ± 0.7	showed binding affinity	<5.0	bound to various galectin molecules	–	CC(=O)N[C@H]1[C@H](O[C@H]2[C@@H](O)[C@@H](COS(=O)(=O)O)O[C@@H](O[C@H]3[C@H](O)[C@@H](NC(C)=O)C(O)O[C@@H]3COS(=O)(=O)O)[C@@H]2O)O[C@H](COS(=O)(=O)O)[C@@H](O[C@@H]2O[C@H](CO)[C@H](O)[C@H](O)[C@H]2O)[C@@H]1O (stereo partly drawn) [L2L4, Gal β1-4 GlcNAc6S β1-3 Gal6S β1-4 GlcNAc6S]
11.6 ± 0.1	showed binding affinity	5.1 ± 1.3	showed binding affinity	<5.0	21.8 ± 1.9	showed binding affinity	6.7 ± 0.2	showed binding affinity	<5.0	bound to various galectin molecules	–	CC(=O)N[C@H]1[C@H](O[C@H]2[C@@H](O)[C@@H](CO)OC(O)[C@@H]2O)O[C@H](CO)[C@@H](O[C@@H]2O[C@H](CO)[C@H](O)[C@H](O)[C@H]2O)[C@@H]1O (stereo partly drawn) [G2K1, Gal β1-4 GlcNAc β1-3 Gal]

Compound	V − V0 Value (Galectin-3) [µL]	binding to galectin-3 (in words) (Galectin-3)	V − V0 Value (Galectin-9N) [µL]	binding to galectin-9N (in words) (Galectin-9N)	V − V0 Value (Galectin-8N) [µL]	V − V0 Value (Galectin-1) [µL]	binding to galectin-1 (in words) (Galectin-1)	V − V0 Value (Galectin-9C) [µL]	binding to galectin-9C (in words) (Galectin-9C)	V − V0 Value (Galectin-8C) [µL]	binding to the tested galectin molecules (in words) [1]	binding to galectin-8N (in words) (Galectin-8N; text statement on the FAC results)
chondroitin sulfate A [CSA, reference compound]	<5.0	–	<5.0	–	<5.0	<5.0	–	<5.0	–	<5.0	did not bind	–
